Common to all, as to assay: NCI anticancer screen, dose series, 48 h
Assay [1] deals with SF-295.
Assay [2] has as its system T47D.
Assay [3] has as its system SK-MEL-5.
Assay [4] has as its system HOP-62.
For assay [5], the system named is COLO 205.
Assay [6] relates to EKVX.
Assay [7] has as its system OVCAR-5.
Assay [8] has as its system SF-539.
Assay [9] relates to NCI-H23.
Assay [10] deals with HOP-92.
The subject of assay [11] is K562.
For assay [12], the system named is SR.
For assay [13], the system named is UACC-257.
For assay [14], the system named is M14.
For assay [15], the system named is DU-145.
For assay [16], the system named is A498.
In assay [17] the test system is SNB-75.
Assay [18] deals with MOLT-4.
Assay [19] has as its system NCI/ADR-RES.
The subject of assay [20] is CCRF-CEM.

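Method: 48-hour compound exposure of cells in 96-well plates, five concentrations, linear interpolation of endpoints. GI50 marks 50% less growth.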 Activity calls are given as the source filed them. No stated cut-off is given here; in the data, active = GI50 up to about 1.1 µM and inactive = higher.

As to `N/N=C(\c1nc2ccc([N+](=O)[O-])cc2nc1O)C(O)c1ccc(Cl)c(Cl)c1` (stereo not given), the GI50 was > 100 µM (inactive) in assay [1]; 67.3 µM (inactive) in [2]; 61.8 µM (inactive) in [3]; > 100 µM (inactive) in assay [4]; > 100 µM (inactive) in assay [5]; > 100 µM (inactive) in assay [6]. For the same molecule, the GI50 in assay [7] is > 100 µM (inactive); in assay [8] it was > 100 µM (inactive); in assay [9] it was > 100 µM (inactive); in assay [10], > 100 µM (inactive); in assay [11], 96.6 µM (inactive); in assay [12] it was 61.5 µM (inactive). The GI50 in assay [13] was > 100 µM (inactive); in assay [14], > 100 µM (inactive); in assay [15], > 100 µM (inactive); in [16], > 100 µM (inactive); in assay [17] it was > 100 µM (inactive); in assay [18] it was 22 µM (inactive). In addition, the GI50 in assay [19] is > 100 µM (inactive); in assay [20], 15.8 µM (inactive).
As to `COc1ccc(COCCOCc2nc(C#N)c(N)o2)cc1`, the GI50 in assay [1], in [2], in assay [3], in assay [4], in assay [5] and in assay [6] was > 100 µM (inactive) each time. Besides, the GI50 in assay [7], in [8], in assay [9], in assay [10], in assay [11] and in assay [12] was > 100 µM (inactive) in each case. The GI50 in [13], in assay [14], in [15], in [16], in assay [17] and in assay [18] was > 100 µM (inactive) throughout. For the same molecule, the figures for the GI50 in assay [19] and in assay [20] were > 100 µM (inactive) and 29 µM (inactive), respectively.
Regarding `CC1=NN(C(=O)CC(=O)Nc2ccccc2)C(=O)C1/N=N/c1ccc(C(=O)O)cc1` (stereo not given), the GI50 in assay [1] was > 100 µM (inactive); in assay [2] it was 62.7 µM (inactive); in assay [3], > 100 µM (inactive); in [4], 75.9 µM (inactive); in assay [5], > 100 µM (inactive); in assay [6], > 100 µM (inactive). In addition, the GI50 is > 100 µM (inactive) in assay [7]; 84.7 µM (inactive) in [8]; > 100 µM (inactive) in [9]; 22.1 µM (inactive) in [10]; > 100 µM (inactive) in [11]; 50.6 µM (inactive) in assay [12]. Besides, the GI50 in [13], in assay [14], in [15], in assay [16], in assay [17] and in assay [18] was > 100 µM (inactive) throughout. In addition, the GI50 in [19] and in assay [20] was > 100 µM (inactive) each time.
Regarding `N#CS/C(C(Cl)=C(Cl)Cl)=C(/Cl)[N+](=O)[O-]`, the GI50 in [1] was 22.2 µM (inactive); in assay [2], 1.99 µM (inactive); in assay [3], 2.53 µM (inactive); in assay [4] it was 15.4 µM (inactive); in assay [5], 1.49 µM (inactive); in assay [6], 4.46 µM (inactive). Moreover, the GI50 in assay [7] was 1.7 µM (inactive); in assay [8], 6.44 µM (inactive); in [9], 2.7 µM (inactive); in assay [10], 2.37 µM (inactive); in assay [11], 0.603 µM (active); in assay [12] it was 0.778 µM (active). Also, the GI50 in [13] is 1.75 µM (inactive); in [14] it was 1.31 µM (inactive); in [15] it was 13.8 µM (inactive); in assay [16], 17.1 µM (inactive); in [17], 17.4 µM (inactive); in assay [18], 0.6 µM (active). Besides, the GI50 is 3.88 µM (inactive) in assay [19] and 0.284 µM (active) in [20].
As for `C=C1C(=O)OC2/C=C(\CO)CC/C=C(\CO)CC(OC(=O)C(C)C)C12` (stereo not given), the GI50 in [1] was 21.3 µM (inactive); in assay [2], 4.72 µM (inactive); in [3], 19 µM (inactive); in assay [4], 19.2 µM (inactive); in assay [5], 2.16 µM (inactive); in assay [6], 16.4 µM (inactive). Besides, the GI50 in assay [7] was 15.9 µM (inactive); in [8], 14.9 µM (inactive); in [9], 19.3 µM (inactive); in assay [10], 1.27 µM (inactive); in assay [11], 1.71 µM (inactive); in assay [12] it was 4.79 µM (inactive). In addition, the GI50 was 12.2 µM (inactive) in [13]; 7.53 µM (inactive) in [14]; 12.7 µM (inactive) in [15]; 21.6 µM (inactive) in assay [16]; 16.5 µM (inactive) in assay [17]; 3.25 µM (inactive) in [18]. The GI50 in assay [19] was 17.6 µM (inactive); in assay [20], 2.99 µM (inactive).
As to `c1ccc2cc(OCC3CO3)c(OCC3CO3)cc2c1` (stereo not given), the GI50 in assay [1] was 2.21 µM (inactive); in assay [2], 10.9 µM (inactive); in assay [3] it was 9.23 µM (inactive); in assay [4], 1.43 µM (inactive); in [5], 12.8 µM (inactive); in [6], 11.4 µM (inactive). Also, the GI50 in assay [7] was 11.4 µM (inactive); in assay [8], 2.65 µM (inactive); in assay [9] it was 2.72 µM (inactive); in assay [10], 8.55 µM (inactive); in assay [11], 3.73 µM (inactive); in assay [12], 0.333 µM (active). The GI50 in assay [13] is 10.2 µM (inactive); in assay [14], 1.64 µM (inactive); in assay [15], 3.85 µM (inactive); in [16], 2 µM (inactive); in assay [17], 4.84 µM (inactive); in assay [18], 0.562 µM (active). Further, the GI50 in assay [19] is 4.05 µM (inactive); in [20], 0.16 µM (active).
On to `CNC(=O)O/N=C1\N(C)CN(c2ccccc2)C12CCN(CCCC(=O)c1ccc(F)cc1)CC2`, for which the GI50 in assay [1] is > 100 µM (inactive); in [2], > 100 µM (inactive); in [3] it was 18.5 µM (inactive); in [4], 39.4 µM (inactive); in [5] it was 18.2 µM (inactive); in assay [6] it was > 100 µM (inactive). In addition, the GI50 in assay [7] was 58.2 µM (inactive); in assay [8], 50.6 µM (inactive); in assay [9] it was > 100 µM (inactive); in [10] it was 35.6 µM (inactive); in assay [11] it was 38.5 µM (inactive); in assay [12], 39.3 µM (inactive). In addition, the GI50 in [13] was 20.1 µM (inactive); in assay [14], 16.9 µM (inactive); in [15], > 100 µM (inactive); in [16], 40 µM (inactive); in [17], 1.01 µM (active); in assay [18] it was 69 µM (inactive). The GI50 in [19] was 45.9 µM (inactive); in assay [20], 99.3 µM (inactive).
`Nc1nc(Sc2ccc([N+](=O)[O-])cn2)c2nc[nH]c2n1`: the GI50 is 9.46 µM (inactive) in [1]; 4.36 µM (inactive) in assay [2]; 14.4 µM (inactive) in assay [3]; 4.6 µM (inactive) in assay [4]; 11.8 µM (inactive) in [5]; 7.53 µM (inactive) in [6]. Besides, the GI50 in assay [7] is 3.47 µM (inactive); in [8] it was 6.24 µM (inactive); in assay [9], 8.05 µM (inactive); in [10], 3.6 µM (inactive); in [11] it was 7.01 µM (inactive); in assay [12], 3.46 µM (inactive). In addition, the GI50 in assay [13] was 18 µM (inactive); in assay [14] it was 3.16 µM (inactive); in assay [15], 3.32 µM (inactive); in assay [16] it was 11.8 µM (inactive); in [17], 5.2 µM (inactive); in assay [18], 4.56 µM (inactive). Also, the GI50 was 3.78 µM (inactive) in assay [19] and 2.77 µM (inactive) in [20].
`CCC/C(Cl)=N/OC(NC(=O)OCC)(C(F)(F)F)C(F)(F)F`: the GI50 was > 100 µM (inactive) in assay [1]; 45.4 µM (inactive) in assay [2]; 23.8 µM (inactive) in assay [3]; > 100 µM (inactive) in assay [4]; 19.8 µM (inactive) in assay [5]; 20.9 µM (inactive) in [6]. For the same molecule, the GI50 in assay [7] is 16.4 µM (inactive); in assay [8] it was 16.7 µM (inactive); in assay [9] it was 25.1 µM (inactive); in assay [10], 20.3 µM (inactive); in assay [11] it was 25.6 µM (inactive); in assay [12], 23.1 µM (inactive). Also, the GI50 in assay [13] was 20.6 µM (inactive); in assay [14], 17.9 µM (inactive); in assay [15], > 100 µM (inactive); in assay [16], > 100 µM (inactive); in assay [17], 82.4 µM (inactive); in assay [18], 32.5 µM (inactive). For the same molecule, the GI50 in assay [19] is 34.5 µM (inactive); in assay [20], 22.1 µM (inactive).
`O=C(/C=C/c1ccc(O)c(O)c1)Oc1ccccc1`: the GI50 in assay [1] is 19.5 µM (inactive); in assay [2] it was 9.71 µM (inactive); in assay [3], 9.95 µM (inactive); in assay [4] it was 15.8 µM (inactive); in [5], 9.57 µM (inactive); in [6], 18.6 µM (inactive). Moreover, the GI50 in [7] was 28.7 µM (inactive); in [8], 10.6 µM (inactive); in assay [9], 14.4 µM (inactive); in assay [10], 14.9 µM (inactive); in assay [11], 4.27 µM (inactive); in assay [12] it was 0.434 µM (active). The GI50 is 22.8 µM (inactive) in assay [13]; 15.5 µM (inactive) in assay [14]; 13.2 µM (inactive) in [15]; 55 µM (inactive) in assay [16]; 13.1 µM (inactive) in [17]; 0.268 µM (active) in assay [18]. Moreover, the figures for the GI50 in [19] and in assay [20] were 11.2 µM (inactive) and 0.292 µM (active), respectively.
